In EPA's ToxValDB 9.5 (doi:10.2903/j.efsa.2017.4718):

Assays:
Cyprinus carpio = conditions: subchronic; duration: 6 weeks; oral; feed; histopathology: nonneoplastic
Sus scrofa = conditions: subchronic; duration: 3 months; oral; diet; Not specified; food consumption
Neovison vison = conditions: short-term; duration: 28 days; oral; diet; F; food consumption
Canidae = conditions: short-term; duration: 14 days; oral; diet; Dog Other; body weight
Meleagris sp. = conditions: subchronic; duration: 12 weeks; oral; feed; M; no effects
Ovis sp. = conditions: short-term; duration: 28 days; oral; diet; food consumption
Oryctolagus sp. = conditions: short-term; duration: 21 days; oral; diet; M; no effects
Gallus gallus = conditions: subchronic; duration: 5 weeks; oral; diet; M; Chicken; no effects
Felidae = conditions: short-term; duration: 14 days; oral; diet; Cat; body weight
Anatidae = conditions: not reported; oral; feed; no effects
Equus caballus = conditions: subchronic; duration: 40 days; no effects

CC1=C[C@H]2O[C@@H]3[C@H](O)C[C@](C)([C@@]2(CO)[C@H](O)C1=O)[C@@]31CO1 [Vomitoxin]
NOAEL (Cyprinus carpio): 0.6 mg/kg | NOAEL (Sus scrofa): 0.7 mg/kg-day | LEL (Mus musculus; chronic, duration: 2 years, immunology): ≥ 0.0016 mg/kg-day | NOAEL (Mus musculus; chronic, duration: 2 years, oral, diet, M/F, B6C3F1, food consumption): 0.1 mg/kg-day | NOAEL (Mus musculus; developmental, development): 0.5 mg/kg-day | NOAEL (Mus musculus; reproduction developmental, oral, diet, M/F, reproduction): 0.38 mg/kg-day | NOAEL (Mus musculus; short-term, duration: 14 days, oral, diet, M/F, BALB/cAnCr, hematological): 0.1 mg/kg-day | NOAEL (Bovidae; chronic, duration: 126 days, oral, diet, food consumption): 10 mg/kg-day | NOAEL (Bovidae; chronic, duration: 166 days, oral, diet, food consumption): 18 mg/kg-day | NOAEL (Bovidae; subchronic, duration: 13 weeks, F, no effects): 5.24 mg/kg-day | NOAEL (Neovison vison): 1.18 mg/kg-day | NOAEL (Canidae): 4 mg/kg-day | NOAEL (Meleagris sp.): 6.5 mg/kg | NOAEL (Ovis sp.): 16 mg/kg-day | NOAEL (Oryctolagus sp.): 4.3 mg/kg-day | NOAEL (Gallus gallus): 5 mg/kg-day | NOAEL (Felidae): 6 mg/kg-day | NOAEL (Anatidae): 7 mg/kg | NOAEL (Equus caballus): 36 mg/kg
